molecular target: T1, Ba/F3 cell EGFR Exon20 ins NPH (Homo sapiens, UniProt P00533, INS773NPH); test: Ba/F3 cell proliferation suppression, EGFR Exon20 ins NPH; type: cell-based; details: GI50 class; Ba/F3 cell line with NPH inserted at Exon20 of EGFR; 72 hours
T1 construct: expressed in transfected cells; host or cells: Ba/F3
Outline: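 72 h compound exposure, 0.3 nM–50 um (12 points, 3:1 dilution in DMSO); viability by CellTiter-Glo luminescence. Ba/F3 medium: RPMI-1640, 10% FBS, 5 ng/ml IL-3, 1 ug/ml puromycin for transduced cells. GI50 vs control, n=3.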

| Ba/F3 (NPH) Activity | SMILES |
| --- | --- |
| A (GI50 < 50 nM) | C=CC(=O)Nc1cc(Nc2cc(N3OCC[C@@H]3c3cc(F)cc(F)c3)ncn2)c(OC)cc1N1CCC(N2CCN(C3CC3)[C@@H](C)C2)CC1 [Example 110, N-(2-(4-((S)-4-cyclopropyl-3-methylpiperazine-1-yl)piperidine-1-yl)-5-((6-((R)-3-(3,5-difluorophenyl)isoxazolidine-2-yl)pyrimidine-4-yl)amino)-4-methoxyphenyl) acrylamide] |
| A (GI50 < 50 nM) | C=CC(=O)Nc1cc(Nc2cc(N3OCC[C@@H]3c3ccc(F)c(Cl)c3)ncn2)c(OC)cc1N1CCN(C(C)=O)CC1 [compound 907, N-(2-(4-acetylpiperazine-1-yl)-5-((6-((R)-3-(3-chloro-4-fluorophenyl)isoxazolidine-2-yl)pyrimidine-4-yl)amino)-4-methoxyphenyl) acrylamide] |
| A (GI50 < 50 nM) | C=CC(=O)Nc1cc(Nc2cc(N3OCC[C@@H]3c3cccc(Cl)c3)ncn2)c(OC)cc1N1CCN(C(C)=O)CC1 [compound 464, N-(2-(4-acetylpiperazine-1-yl)-5-((6-((R)-3-(3-chlorophenyl)isoxazolidine-2-yl)pyrimidine-4-yl)amino)-4-methoxyphenyl) acrylamide] |
| A (GI50 < 50 nM) | C=CC(=O)Nc1cc(Nc2cc(N3OCC[C@@H]3c3cc(F)cc(F)c3)ncn2)c(OC)cc1N1CCC(N2CCC3(CC2)CC3)CC1 [compound 700, N-(2-(4-(6-azaspiro[2.5]octan-6-yl)piperidine-1-yl)-5-((6-((R)-3-(3,5-difluorophenyl)isoxazolidine-2-yl)pyrimidine-4-yl)amino)-4-methoxyphenyl) acrylamide] |
| A (GI50 < 50 nM) | C=CC(=O)Nc1cc(Nc2cc(N3OCC[C@@H]3c3ccc(F)cc3F)ncn2)c(OC)cc1N1CCC(N2CCN(C3CCN(C)CC3)CC2)CC1 [compound 430, N-(5-((6-((R)-3-(2,4-difluorophenyl)isoxazolidine-2-yl)pyrimidine-4-yl)amino)-4-methoxy-2-(4-(4-(1-methylpiperidine-4-yl)piperazine-1-yl)piperidine-1-yl)phenyl)acrylamide] |
| A (GI50 < 50 nM) | C=CC(=O)Nc1cc(Nc2cc(N3OCC[C@@H]3c3cc(F)cc(Cl)c3)ncn2)c(OC)cc1N1CCC(N2CCOCC2)CC1 [compound 589, N-(5-((6-((R)-3-(3-chloro-5-fluorophenyl)isoxazolidine-2-yl)pyrimidine-4-yl)amino)-4-methoxy-2-(4-morpholinopiperidine-1-yl)phenyl)acrylamide] |
| A (GI50 < 50 nM) | C#Cc1cccc([C@H]2CCON2c2cc(Nc3cc(NC(=O)C=C)c(N4CC[C@@H](N(C)C)C4)cc3OC)ncn2)c1 [compound 653, N-(2-((R)-3-(dimethylamino)pyrolidine-1-yl)-5-((6-((R)-3-(3-ethynylphenyl)isoxazolidine-2-yl)pyrimidine-4-yl)amino)-4-methoxyphenyl) acrylamide] |
| A (GI50 < 50 nM) | C=CC(=O)Nc1cc(Nc2cc(N3OCC[C@@H]3c3c(F)ccc(F)c3F)ncn2)c(OC)cc1N1CCC(N2CCO[C@H](C)C2)CC1 [compound 646, N-(4-methoxy-2-(4-((R)-2-methylmorpholino)piperidine-1-yl)-5-((6-((R)-3-(2,3,6-trifluorophenyl)isoxazolidine-2-yl)pyrimidine-4-yl)amino)phenyl)acrylamide] |
| A (GI50 < 50 nM) | C=CC(=O)Nc1cc(Nc2cc(N3OCC[C@@H]3c3ccc(F)cc3)ncn2)c(OC)cc1N1CCC(N2C[C@H]3C[C@@H]2CO3)CC1 [compound 813, N-(2-(4-((1R,4R)-2-oxa-5-azabicyclo [2.2.1]heptane-5-yl)piperidine-1-yl)-5-((6-((R)-3-(4-fluorophenyl)isoxazolidine-2-yl)pyrimidine-4-yl)amino)-4-methoxyphenyl) acrylamide] |
| B (50 nM ≤ GI50 < 500 nM) | C=CC(=O)Nc1cc(Nc2cc(N3OCC[C@@H]3c3ccc4ccccc4c3)ncn2)c(OC)cc1N1CCO[C@H](C)C1 [compound 663, N-(4-methoxy-2-((R)-2-methylmorpholino)-5-((6-((R)-3-(naphthalene-2-yl)isoxazolidine-2-yl)pyrimidine-4-yl)amino)phenyl)acrylamide] |
| A (GI50 < 50 nM) | C=CC(=O)Nc1cc(Nc2cc(N3OCC[C@@H]3c3cccc(Cl)c3C)ncn2)c(OC)cc1N1CCC(N2CCN(CC)CC2)CC1 [compound 487, N-(5-((6-((R)-3-(3-chloro-2-methylphenyl)isoxazolidine-2-yl)pyrimidine-4-yl)amino)-2-(4-(4-ethylpiperazine-1-yl)piperidine-1-yl)-4-methoxyphenyl) acrylamide] |
| A (GI50 < 50 nM) | C=CC(=O)Nc1cc(Nc2cc(N3OCC[C@@H]3c3cc(F)cc(Cl)c3)ncn2)c(OC)cc1N1CCC(N2C[C@@H](C)O[C@@H](C)C2)CC1 [compound 594, N-(5-((6-((R)-3-(3-chloro-5-fluorophenyl)isoxazolidine-2-yl)pyrimidine-4-yl)amino)-2-(4-((2S,6R)-2,6-dimethylmorpholino)piperidine-1-yl)-4-methoxyphenyl) acrylamide] |
| A (GI50 < 50 nM) | C=CC(=O)Nc1cc(Nc2cc(N3OCC[C@@H]3c3cccc(C#N)c3)ncn2)c(OC)cc1N1CCC(N2CCN(C(C)=O)CC2)CC1 [compound 434, N-(2-(4-(4-acetylpiperazine-1-yl)piperidine-1-yl)-5-((6-((R)-3-(3-cyanophenyl)isoxazolidine-2-yl)pyrimidine-4-yl)amino)-4-methoxyphenyl) acrylamide] |
| A (GI50 < 50 nM) | C=CC(=O)Nc1cc(Nc2cc(N3OCC[C@@H]3c3ccc(F)c(Cl)c3F)ncn2)c(OC)cc1N1CCC(N2C[C@@H]3C[C@H]2CO3)CC1 [compound 637, N-(2-(4-((1S,4S)-2-oxa-5-azabicyclo[2.2.1]heptane-5-yl)piperidine-1-yl)-5-((6-((R)-3-(3-chloro-2,4-difluorophenyl)isoxazolidine-2-yl)pyrimidine-4-yl)amino)-4-methoxyphenyl) acrylamide] |
| A (GI50 < 50 nM) | C=CC(=O)Nc1cc(Nc2cc(N3OCC[C@@H]3c3cccc(F)c3F)ncn2)c(OC)cc1N1CCC(N2CCN(C3CCC3)CC2)CC1 [Example 182, N-(2-(4-(4-cyclobutylpiperazine-1-yl)piperidine-1-yl)-5-((6-((R)-3-(2,3-difluorophenyl)isoxazolidine-2-yl)pyrimidine-4-yl)amino)-4-methoxyphenyl) acrylamide] |
| B (50 nM ≤ GI50 < 500 nM) | C=CC(=O)Nc1cc(Nc2cc(N3OCC[C@@H]3c3ccc(Cl)cc3F)ncn2)c(OC)cc1N1CCC(N2CC[C@H](N(C)C)C2)CC1 [compound 405, N-(5-((6-((R)-3-(4-chloro-2-fluorophenyl)isoxazolidine-2-yl)pyrimidine-4-yl)amino)-2-(4-((S)-3-(dimethylamino)pyrolidine-1-yl)piperidine-1-yl)-4-methoxyphenyl) acrylamide] |
| A (GI50 < 50 nM) | C=CC(=O)Nc1cc(Nc2cc(N3OCC[C@@H]3c3ccc(Cl)c(Cl)c3)ncn2)c(OC)cc1N1C[C@@H]2C[C@H]1CO2 [compound 612, N-(2-((1S,4S)-2-oxa-5-azabicyclo[2.2.1]heptane-5-yl)-5-((6-((R)-3-(3,4-dichlorophenyl)isoxazolidine-2-yl)pyrimidine-4-l)amino)-4-methoxyphenyl) acrylamide] |
| A (GI50 < 50 nM) | C=CC(=O)Nc1cc(Nc2cc(N3OCC[C@@H]3c3ccc(F)c(Cl)c3F)ncn2)c(OC)cc1N1CCC(N2CCN(C3CC3)CC2)CC1 [Example 168] |
| B (50 nM ≤ GI50 < 500 nM) | C=CC(=O)Nc1cc(Nc2cc(N3OCC[C@@H]3c3cc(F)cc(F)c3)ncn2)c(OC)cc1N1CCC(N2CCNCC2)CC1 [compound 754, N-(5-((6-((R)-3-(3,5-difluorophenyl)isoxazolidine-2-yl)pyrimidine-4-yl)amino)-4-methoxy-2-(4-(piperazine-1-yl)piperidine-1-yl)phenyl) acrylamide] |
| A (GI50 < 50 nM) | C=CC(=O)Nc1cc(Nc2cc(N3OCC[C@@H]3c3cc(F)ccc3F)ncn2)c(OC)cc1N1CCC(N2CCN(C)CC2)CC1 [compound 765, N-(5-((6-((R)-3-(2,5-difluorophenyl)isoxazolidine-2-yl)pyrimidine-4-yl)amino)-4-methoxy-2-(4-(4-methylpiperazine-1-yl)piperidine-1-yl)phenyl)acrylamide] |
| A (GI50 < 50 nM) | C=CC(=O)Nc1cc(Nc2cc(N3OCC[C@@H]3Cc3cccc(F)c3)ncn2)c(OC)cc1N1CCN(C)CC1 [compound 991, N-(5-((6-((S)-3-(3-fluorobenzyl)isoxazolidine-2-yl)pyrimidine-4-yl)amino)-4-methoxy-2-(4-methylpiperazine-1-yl)phenyl)acrylamide] |
| A (GI50 < 50 nM) | C=CC(=O)Nc1cc(Nc2cc(N3OCC[C@@H]3c3cccc(F)c3F)ncn2)c(OC)cc1N1CCC(N2CCN(CC)CC2)CC1 [compound 922] |
| A (GI50 < 50 nM) | C=CC(=O)Nc1cc(Nc2cc(N3OCC[C@@H]3Cc3cccc(Cl)c3Cl)ncn2)c(OC)cc1N1CCC(N2CCN(C3CC3)CC2)CC1 [compound 1009, N-(2-(4-(4-cyclopropylpiperazine-1-yl)piperidine-1-yl)-5-((6-((S)-3-(2,3-dichlorobenzyl)isoxazolidine-2-yl)pyrimidine-4-yl)amino)-4-methoxyphenyl) acrylamide] |

— patent US12157730B2, “Heteroaryl derivative, method for producing same, and pharmaceutical composition comprising same as effective component” (VORONOI INC., priority 2019, dated 2024)
